Laboratory results published in patent US20130115628A1, “METHOD FOR SELECTION OF CHEMOTHERAPEUTIC AGENTS FOR ADENOCARCINOMA CANCER” (VENTANA MEDICAL SYSTEMS, INC., priority 2011, published 2013).

Columns and labels:
[1] = system: pancreatic adenocarcinoma; assay: Retrospective study of tumor hENT1 expression (IHC, SP120) and overall survival in RTOG 9704 patients given adjuvant gemcitabine or 5FU; type: in vivo, human; set-up: Median OS in Gem hENT1-Low Patients / Median OS in Gem hENT1-High Patients: unit not given here; conditions: for median OS as hENT1 expression increases from No to Low to High: Method Five (percent negative staining), FIG. 18; for median OS as hENT1 expression increases from Negative to Weak to Moderate to Strong: Method Four (staining intensity), FIG. 30; for median OS as hENT1 expression (H-score subgroup) increases: Method One (H-score), FIG. 22; for OS across High, Mid and No hENT1 subgroups: Method Six with No hENT1 category (membranes resolvable at 10×), FIGS. 33-34; for OS of Low hENT1 subgroup compared to High hENT1 subgroup: Method Six; for median OS as hENT1 expression increases from Negative to Segmental to Diffuse: Method Three (staining pattern), FIG. 26; for OS of subgroup N, 20× or 40× compared to subgroup PP at 2×, 4× or 10×: Method Two (magnification), FIGS. 15-16; for HR (CI) for hENT1-Low vs -High in Gem Patients / HR for Gem vs 5-FU in hENT1-High Patients / HR for Gem vs 5-FU in hENT1-Low Patients: overall survival
Text: Method One for determining a hENT1 endpoint is an H-score. The H-score is a continuous variable that takes into account both the percentage of cells that are positive for the antigen in question, as well as the intensity of staining with the relevant antibody (McCarty et al. (1986) Cancer Research (Supp) 46, 4244s-4248s). A scoring algorithm was used to capture the hENT1 expression results. […]
Method Four for determining a hENT1 endpoint is based on highest percentage of hENT1 membrane staining intensity. The staining intensity for a tissue core is determined using the parameters described for the H-score (0, 1+, 2+, 3+). The percentage of each parameter represented by the tumor is determined. If a score of only 0 is obtained, the endpoint is considered Negative (N). For all other samples (e.g. those that contain scores with 0, 1+, 2+, and/or 3+), the endpoint is determined by the non-0 membrane intensity represented in the highest percentage (see FIG. 1). For example, if the sample is 50% 0, 20% 1+, 30% 2+ and 0% 3+, such sample would be referred to as 2+. If 2 intensities have the same percentage then the lower of the 2 intensities is used. A staining intensity score of 0 is referred to as Negative (N), a staining intensity score of 1+ is referred to as Weak (W), a staining intensity score of 2+ is referred to as Moderate (M), and a staining intensity score of 3+ is referred to as Strong (S). If there are multiple evaluations made on a patient, the maximum result (i.e., S>M>W) from the evaluations is used. There may be circumstances where if multiple evaluations are made on a patient, the minimum result from the evaluations is used. […]

pancreatic cancer = conditions: Stage III/IV disease, gemcitabine monotherapy; cited from earlier work
[2] = High = PP at 2×, 4× and/or 10× AND negative tumor tissue <=50%, FIGS. 7-8
[3] = High = at least 50% of tumor displays membrane staining at 10× ocular, FIGS. 4-5
[4] = 50% tumor staining, Low group: >50% of tumor is negative
[5] = Magnification (intensity), Low group: unequivocal membranes visible only at 20x, 40x or negative
[6] = Magnification and % tumor staining, Low group: membranes visible only at 20x, 40x or negative OR >=50% of tumor is negative
[7] = staining variable H-score, Low group: H-score <50

## O=c1[nH]cc(F)c(=O)[nH]1 [5FU, 5-Fluorouracil]
[1]
  median OS as hENT1 expression increases from No to Low to High: do not demonstrate an improvement in OS with increasing hENT1 expression
  median OS as hENT1 expression increases from Negative to Weak to Moderate to Strong: do not demonstrate an improvement in OS with increasing hENT1 expression
  median OS as hENT1 expression (H-score subgroup) increases: do not demonstrate an improvement in OS with increasing hENT1 expression
  OS across High, Mid and No hENT1 subgroups: do not demonstrate improvement in OS between the High, Mid and No hENT1 subgroups
  median OS as hENT1 expression increases from Negative to Segmental to Diffuse: do not demonstrate an improvement in OS with increasing hENT1 expression
  OS of subgroup N, 20× or 40× compared to subgroup PP at 2×, 4× or 10×: do not demonstrate an improvement in OS
[1]; [2]
  OS of Low hENT1 subgroup compared to High hENT1 subgroup: do not demonstrate improvement in OS between the High and Low subgroups
[1]; [3]
  OS of Low hENT1 subgroup compared to High hENT1 subgroup: do not demonstrate improvement in OS between the High and Low subgroups

## Nc1ccn([C@@H]2O[C@H](CO)[C@@H](O)C2(F)F)c(=O)n1 [gemcitabine]
[1]; [4]
  Median OS in Gem hENT1-High Patients: 19.6
  Median OS in Gem hENT1-Low Patients: 14.2
  HR (CI) for hENT1-Low vs -High in Gem Patients: 0.61
  HR for Gem vs 5-FU in hENT1-High Patients: 0.84
  HR for Gem vs 5-FU in hENT1-Low Patients: 1.37
[1]; [5]
  Median OS in Gem hENT1-High Patients: 21.0
  Median OS in Gem hENT1-Low Patients: 14.8
  HR (CI) for hENT1-Low vs -High in Gem Patients: 0.67
  HR for Gem vs 5-FU in hENT1-High Patients: 0.87
[1]; [6]
  Median OS in Gem hENT1-High Patients: 24.2
  Median OS in Gem hENT1-Low Patients: 14.8
  HR (CI) for hENT1-Low vs -High in Gem Patients: 0.58
  HR for Gem vs 5-FU in hENT1-High Patients: 0.77
[1]
  median OS as hENT1 expression increases from No to Low to High: increases
  median OS as hENT1 expression increases from Negative to Weak to Moderate to Strong: increases
  median OS as hENT1 expression (H-score subgroup) increases: increases
  OS across High, Mid and No hENT1 subgroups: the subgroup with No hENT1 expression exhibited the shortest OS followed by the Mid hENT1 subgroup and the High hENT1 subgroup had the longest OS
  median OS as hENT1 expression increases from Negative to Segmental to Diffuse: increases
  OS of subgroup N, 20× or 40× compared to subgroup PP at 2×, 4× or 10×: exhibited shorter OS
[1]; Method Five, FIG. 19
  OS of No hENT1 subgroup compared to Low and High hENT1 subgroups: exhibited shorter OS
[1]; Method Five, FIG. 20
  OS of patients with observable hENT1 expression (Low and High combined) compared to no hENT1 expression: exhibit longer OS
[1]; Method Four, FIG. 31
  OS of negative hENT1 subgroup compared to Weak, Moderate or Strong subgroups: exhibited shorter OS
[1]; Method One, FIG. 23
  OS of subgroup H-score<=20 compared to H-score between 20 and 80 and H-score>=80: exhibited shorter OS
[1]; Method One, FIG. 24
  OS of patients with H-score>=50 compared to H-score <50: exhibited longer OS
[1]; [2]
  OS of Low hENT1 subgroup compared to High hENT1 subgroup: exhibited shorter OS
[1]; [3]
  OS of Low hENT1 subgroup compared to High hENT1 subgroup: exhibited shorter OS
[1]; Method Three, FIG. 27
  OS of negative hENT1 subgroup compared to Segmental or Diffuse subgroups: exhibited shorter OS
[1]; Method Three, FIG. 28
  OS of patients with detectable hENT1 expression (S or D) compared to no hENT1 expression: exhibit longer OS
[1]; for each of the hENT1 cut-offs of Table 2
  median overall survival of hENT1-high patients compared to hENT1-low patients: longer
[1]; [7]
  HR (CI) for hENT1-Low vs -High in Gem Patients: 0.63
  HR for Gem vs 5-FU in hENT1-High Patients: 0.86
  HR for Gem vs 5-FU in hENT1-Low Patients: 1.35
  Median OS in Gem hENT1-High Patients: 19.6
  Median OS in Gem hENT1-Low Patients: 14.2
Pancreatic cancer
  median OS: 5-7 months
